# Measured values from ChEMBL document CHEMBL3885881, “DrugMatrix”.
# Species: Rattus norvegicus
# Experiment: DrugMatrix - Regimen: Daily Repeat
# Assay type: toxicity, organism-based, Sprague-Dawley
# Parameters: regimen Daily Repeat, gender Male, age 6-8 weeks
# Conditions: in vivo, iv, […], vehicle 100 % SALINE; for MONOCYTE / NEUTROPHIL / NUCLEATED RED BLOOD CELLS / ABSOLUTE BASOPHIL / ABSOLUTE EOSINOPHIL / ABSOLUTE LYMPHOCYTE / ABSOLUTE MONOCYTE / ABSOLUTE SEGMENTED NEUTROPHIL / BASOPHIL / EOSINOPHIL / ERYTHROCYTE COUNT / HEMATOCRIT / HEMOGLOBIN / LEUKOCYTE COUNT / LYMPHOCYTE / MEAN CORPUSCULAR HEMOGLOBIN / MEAN CORPUSCULAR HEMOGLOBIN CONCENTRATION / MEAN CORPUSCULAR VOLUME: tissue Blood; for ALANINE AMINOTRANSFERASE / ALKALINE PHOSPHATASE / ASPARTATE AMINOTRANSFERASE / BLOOD UREA NITROGEN / CARBON DIOXIDE / CHOLESTEROL / CREATINE PHOSPHOKINASE / CREATININE / GLUCOSE / LACTATE DEHYDROGENASE / LIPASE / SODIUM / TOTAL BILIRUBIN / TOTAL PROTEIN / URIC ACID: tissue Plasma
# [1] = 72 h, dose 2.7 mg/Kg, dose level High, time 3 day
# [2] = 72 h, dose 0.27 mg/Kg, dose level Low, time 3 day
# [3] = 120 h, dose 0.27 mg/Kg, dose level Low, time 5 day
# [4] = 120 h, dose 2.7 mg/Kg, dose level High, time 5 day
compound,measurement,setting,value
COc1cccc2c1C(=O)c1c(O)c3c(c(O)c1C2=O)C[C@@](O)(C(=O)CO)C[C@@H]3O[C@H]1C[C@H](N)[C@@H](O)[C@H](C)O1 [EPIRUBICIN],MONOCYTE,[1],0.67%
same,NEUTROPHIL,[1],8.67%
same,NUCLEATED RED BLOOD CELLS,[1],0 /100WBC
same,ALANINE AMINOTRANSFERASE,[2],37 u/L
same,ALKALINE PHOSPHATASE,[2],440.33 u/L
same,ASPARTATE AMINOTRANSFERASE,[2],76.33 u/L
same,BLOOD UREA NITROGEN,[2],17 mg/dL
same,CARBON DIOXIDE,[2],25 mmol/L
same,CHOLESTEROL,[2],79.67 mg/dL
same,CREATINE PHOSPHOKINASE,[2],317.67 u/L
same,CREATININE,[2],0.15 mg/dL
same,GLUCOSE,[2],161.33 mg/dL
same,LACTATE DEHYDROGENASE,[2],433 u/L
same,LIPASE,[2],9.33 u/L
same,SODIUM,[2],143.3 MEQ/L
same,TOTAL BILIRUBIN,[2],0.2 mg/dL
same,TOTAL PROTEIN,[2],5.67 G/DL
same,URIC ACID,[2],1.5 mg/dL
same,ALANINE AMINOTRANSFERASE,[1],33 u/L
same,ALKALINE PHOSPHATASE,[1],297.33 u/L
same,ASPARTATE AMINOTRANSFERASE,[1],83.67 u/L
same,BLOOD UREA NITROGEN,[1],13 mg/dL
same,CARBON DIOXIDE,[1],26.33 mmol/L
same,CHOLESTEROL,[1],96.33 mg/dL
same,CREATINE PHOSPHOKINASE,[1],442.33 u/L
same,CREATININE,[1],0.12 mg/dL
same,GLUCOSE,[1],146.33 mg/dL
same,LACTATE DEHYDROGENASE,[1],682.67 u/L
same,LIPASE,[1],10 u/L
same,SODIUM,[1],143.33 MEQ/L
same,TOTAL BILIRUBIN,[1],0.0667 mg/dL
same,TOTAL PROTEIN,[1],5.73 G/DL
same,URIC ACID,[1],1.43 mg/dL
same,ABSOLUTE BASOPHIL,[3],0 CELLS/uL
same,ABSOLUTE EOSINOPHIL,[3],0 CELLS/uL
same,ABSOLUTE LYMPHOCYTE,[3],12433.67 CELLS/uL
same,ABSOLUTE MONOCYTE,[3],229 CELLS/uL
same,ABSOLUTE SEGMENTED NEUTROPHIL,[3],504 CELLS/uL
same,BASOPHIL,[3],0%
same,EOSINOPHIL,[3],0%
same,ERYTHROCYTE COUNT,[3],5.91 x10E6/uL
same,HEMATOCRIT,[3],37.27%
same,HEMOGLOBIN,[3],14.33 G/DL
same,LEUKOCYTE COUNT,[3],13.17 x10E3/uL
same,LYMPHOCYTE,[3],94.33%
same,MEAN CORPUSCULAR HEMOGLOBIN,[3],24.27 pg
same,MEAN CORPUSCULAR HEMOGLOBIN CONCENTRATION,[3],38.5 G/DL
same,MEAN CORPUSCULAR VOLUME,[3],63.07 fL
same,MONOCYTE,[3],1.67%
same,NEUTROPHIL,[3],4%
same,NUCLEATED RED BLOOD CELLS,[3],0 /100WBC
same,ABSOLUTE BASOPHIL,[4],0 CELLS/uL
same,ABSOLUTE EOSINOPHIL,[4],0 CELLS/uL
same,ABSOLUTE LYMPHOCYTE,[4],1316 CELLS/uL
same,ABSOLUTE MONOCYTE,[4],12 CELLS/uL
same,ABSOLUTE SEGMENTED NEUTROPHIL,[4],72 CELLS/uL
same,BASOPHIL,[4],0%
same,EOSINOPHIL,[4],0%
same,ERYTHROCYTE COUNT,[4],6.07 x10E6/uL
same,HEMATOCRIT,[4],37.4%
same,HEMOGLOBIN,[4],15.17 G/DL
same,LEUKOCYTE COUNT,[4],1.4 x10E3/uL
same,LYMPHOCYTE,[4],94%
same,MEAN CORPUSCULAR HEMOGLOBIN,[4],25.13 pg
same,MEAN CORPUSCULAR HEMOGLOBIN CONCENTRATION,[4],40.6 G/DL
same,MEAN CORPUSCULAR VOLUME,[4],61.83 fL
same,MONOCYTE,[4],1%
same,NEUTROPHIL,[4],5%
same,NUCLEATED RED BLOOD CELLS,[4],0 /100WBC
same,ALANINE AMINOTRANSFERASE,[3],57.67 u/L
same,ALKALINE PHOSPHATASE,[3],390.33 u/L
same,ASPARTATE AMINOTRANSFERASE,[3],107.33 u/L
same,BLOOD UREA NITROGEN,[3],16.67 mg/dL
same,CARBON DIOXIDE,[3],25 mmol/L
same,CHOLESTEROL,[3],75 mg/dL
same,CREATINE PHOSPHOKINASE,[3],510.67 u/L
same,CREATININE,[3],0.16 mg/dL
same,GLUCOSE,[3],152 mg/dL
same,LACTATE DEHYDROGENASE,[3],825.67 u/L
same,LIPASE,[3],9 u/L
same,SODIUM,[3],144.37 MEQ/L
same,TOTAL BILIRUBIN,[3],0.17 mg/dL
same,TOTAL PROTEIN,[3],5.9 G/DL
same,URIC ACID,[3],1.63 mg/dL
same,ALANINE AMINOTRANSFERASE,[4],29 u/L
same,ALKALINE PHOSPHATASE,[4],172 u/L
same,ASPARTATE AMINOTRANSFERASE,[4],79.33 u/L
same,BLOOD UREA NITROGEN,[4],20.67 mg/dL
same,CARBON DIOXIDE,[4],28 mmol/L
same,CHOLESTEROL,[4],93 mg/dL
same,CREATINE PHOSPHOKINASE,[4],725.67 u/L
same,CREATININE,[4],0.12 mg/dL
same,GLUCOSE,[4],151.33 mg/dL
same,LACTATE DEHYDROGENASE,[4],374.33 u/L
same,LIPASE,[4],8.67 u/L
same,SODIUM,[4],141.7 MEQ/L
same,TOTAL BILIRUBIN,[4],0.0667 mg/dL
same,TOTAL PROTEIN,[4],5.67 G/DL
same,URIC ACID,[4],1.37 mg/dL
